In patent US10779550B2, “Human milk oligosaccharides to ameliorate symptoms of stress” (ABBOTT LABORATORIES, priority 2012, dated 2020):
Marks after values point to notes of the source that are not given here.

Experiments:
[1] = test system: fecal samples taken from breast-fed infants (BF) (intestinal flora); assay: Anaerobic fermentation of HMOs with fecal inocula from breast-fed infants; GABA and agmatine in supernatant by GC/MS and LC/MS/MS; assay type: cell-based, human; conditions: for GABA, ratio HMO/blank / agmatine, ratio HMO/blank: breast fed infants, fermentation 37° C.; for GABA and agmatine relative to a blank (in words): breast-fed infants (BF) fecal fermentation cultures
Protocol: (§1) Fecal samples from eight human babies, one group of four breast-fed and the other group of four formula-fed, were used as inocula for anaerobic fermentation (37° C.) of lacto-N-neotetraose (LNnT) and 6′-sialyllactose. Supernatants from the fermentation cultures were sampled at 0 hr, 3 hr, and 6 hr. A culture without addition of HMOs served as a control. A sample of the fermentation medium (blank), which constituted approximately 90% of the starting culture volume, was also analyzed.
(§2) Samples were extracted and split into equal parts for analysis on GC/MS and LC/MS/MS platforms. GABA and agmatine ions were identified in chromatograms, and peak area was integrated for quantitative analysis.

[2] = test system: fecal samples taken from formula-fed infants (FF) (intestinal flora); assay: Anaerobic fermentation of HMOs with fecal inocula from formula-fed infants; GABA and agmatine in supernatant by GC/MS and LC/MS/MS; assay type: cell-based, human; conditions: for GABA, ratio HMO/blank / agmatine, ratio HMO/blank: formula fed infants, fermentation 37° C.; for GABA and agmatine relative to a blank (in words): formula-fed infants (FF) fecal fermentation cultures
Protocol: as §1, §2

Structure (SMILES) | GABA, ratio HMO/blank ([1]; 0 h) | agmatine, ratio HMO/blank ([1]; 0 h) | GABA, ratio HMO/blank ([1]; 3 h) | agmatine, ratio HMO/blank ([1]; 3 h) | GABA, ratio HMO/blank ([1]; 6 h) | agmatine, ratio HMO/blank ([1]; 6 h) | GABA and agmatine relative to a blank (in words) [1] | GABA, ratio HMO/blank ([2]; 0 h) | agmatine, ratio HMO/blank ([2]; 0 h) | GABA, ratio HMO/blank ([2]; 3 h) | agmatine, ratio HMO/blank ([2]; 3 h) | GABA, ratio HMO/blank ([2]; 6 h) | agmatine, ratio HMO/blank ([2]; 6 h) | GABA and agmatine relative to a blank (in words) [2]
CC(=O)N[C@H]1[C@H](O[C@H]2[C@@H](O)[C@@H](CO)O[C@@H](O[C@H]3[C@H](O)[C@@H](O)C(O)O[C@@H]3CO)[C@@H]2O)O[C@H](CO)[C@@H](O[C@@H]2O[C@H](CO)[C@H](O)[C@H](O)[C@H]2O)[C@@H]1O (mixture of isomers) [LNnT, lacto-N-neotetraose] | 3.66 | 9.52^a | 14.78 | 34.4 | 17.46^a | 1.59 | dramatic increases | 3.25 | 2.12 | 27.83^a | 61.77^a | 33.42^a | 75.02^a | dramatic increases
CC(=O)N[C@H]1[C@H]([C@H](O)[C@H](O)CO)O[C@@](OC[C@H]2O[C@@H](O[C@H]3[C@H](O)[C@@H](O)[C@H](O)O[C@@H]3CO)[C@H](O)[C@@H](O)[C@H]2O)(C(=O)O)C[C@@H]1O [6′SL, 6′-sialyllactose] | 1.22 | 8.23^a | 3.53 | 10.51 | 5.32 | 3.43 | dramatic increases | 0.6 | 1.4 | 4.31 | 11.99 | 16.99^a | 3.76 | dramatic increases
